The values that follow come from patent US12570607B2, “Compound as cyclin-dependent kinase 9 inhibitor and use thereof” (CSPC Zhongqi Pharmaceutical Technology (Shijiazhuang) Co., …, priority 2019, dated 2026).

The subject of test [1] is human acute promyelocytic leukemia HL-60 cell subcutaneous xenograft tumor. The experiment in a line: In vivo antitumor activity in HL-60 cell subcutaneous xenograft tumor model. Also noted: species or system Nu/Nu mice. The conditions noted are these: HL-60 xenograft, qd, p.o., 5 mg/Kg, 9 days. The protocol:
Cell culture: IMDM culture medium containing 20% fetal bovine serum (FBS), 37° C., 5% CO2; Nu/Nu mice, female, 6-8 weeks (18-22 g), each mouse was subcutaneously inoculated with 0.1 mL of HL-60 cell suspension (containing about 1×10^7 cells) in the axillary region of the right forelimb. When the average tumor volume reached 150 mm^3, drug administration was started. The tumor volume was measured 2-3 times per week, and the volume was calculated in cubic millimeters. When the average tumor volume in the vehicle group reached more than 800 mm^3, the administration was terminated to compare the difference in the average tumor volume between the compound group and the vehicle group. The antitumor efficacy of the compounds was evaluated by TGI (%). TGI (%) reflected the tumor growth inhibition rate.

In test [2] the test system is MV4;11 cells. The test can be described thus: In vitro MV4;11 cell proliferation inhibition (MTT method). The test is classed as cell-based. Particulars: Homo sapiens. From the text: The in vitro inhibitory effect of the synthesized compounds on cell proliferation was investigated.
The trade name of MTT was thiazole blue, which was a tetrazolium salt of a dye that could accept hydrogen atoms. […] Dimethyl sulfoxide could dissolve blue-purple complexes in cells, and its light absorption value could be measured at 490-550 nm wavelength with an enzyme-linked immunosorbent detector, which could indirectly reflect the number of cells. Within a certain range of the cell number, the amount of MTT crystals formed was proportional to the number of cells. The drug to be tested was successively diluted to different concentrations and added to a 96-well plate. The OD value was determined after the drug acted for a certain time. The size of the OD value could reflect the number of living cells, and its IC50 value was calculated with SPSS19.0.
Suspension of cells: Cells were […] by centrifugation and counted. A certain density of cell suspension was formulated with a complete culture medium, blown evenly, inoculated on a 96-well plate, 100 μL per well, and then cultured in a CO2 incubator.
An appropriate amount of the drug was added to a calculated amount of DMSO and dissolved. The resulting mixture was dispensed and stored at −20° C. The formulation concentration was 10 mM.
The stock solution of the compound having a concentration of 10 mM was diluted into different concentrations (8 concentrations) of solutions of the compound in DMSO (3-fold dilution, 20×final concentration). Each concentration of solutions (10 μL) of the compound in DMSO was respectively diluted with cell culture media (90 μL) to formulate working solutions (2×final concentration). Each concentration of working solutions (100 μL) of the compound was added to the 96-well plate inoculated with cells (1×final concentration, the highest final concentration is 1000 nM). The resulting plate continued to be cultured in a CO2 incubator.
The 96-well plate was taken out, and the density of cells was observed under a microscope. The test was performed with the MTT method.
MTT method: 20 μL of MTT was added to each well; the plate was cultured for about 4 hours in the incubator; the liquid in the well was discarded; 150 μL of DMSO was added into each well; the plate was placed in a shaker and shaken for 5-10 minutes, and the test was performed with a microplate reader at a wavelength of 550 nm. 7. Data analysis: IC50 value of the drug was calculated with SPSS19.0 statistical software.

In test [3] the test system is human acute myelocytic leukemia MV4;11 cell subcutaneous xenograft tumor. The experiment in a line: In vivo antitumor activity in MV4;11 cell subcutaneous xenograft tumor model. Also noted: species or system NOD-SCID mice. Particulars: MV4;11 xenograft, p.o. The protocol:
Cell culture: IMDM culture medium containing 10% fetal bovine serum (FBS), 37° C., 5% CO2.
NOD-SCID mice, female, 6-8 weeks(18-22 g), each mouse was subcutaneously inoculated with 0.1 mL (1×10^8) MV4;11 cells on the right back of each mouse. When the average tumor volume reached 150 mm^3, drug administration was started. The tumor volume was measured twice a week, and the volume was calculated in cubic millimeters. When the average tumor volume in the vehicle group reached more than 800 mm^3, the administration was terminated to compare the difference in the average tumor volume between the compound groups and the vehicle group. The antitumor efficacy of the compounds was evaluated by TGI (%). TGI (%) reflected the tumor growth inhibition rate.

Test [4] deals with hERG channel (Homo sapiens (Human), UniProt Q12809). The experiment in a line: In vitro hERG inhibitory activity, whole-cell patch-clamp on CHO-K1 cell line stably expressing the hERG channel. An excerpt: Rapid delayed rectifier current (IKr) was mainly mediated by the hERG ion channel and involved in human cardiomyocyte repolarization. Inhibition of IKr was the leading cause of the clinical QT interval prolongation syndrome, even acute cardiac dysrhythmia, and even sudden death. By utilizing a whole-cell patch-clamp technology, the blocking effect of a compound on the hERG channel was detected on a CHO-K1 cell line stably expressing the hERG channel, and the half inhibition concentration IC50 of the compound was determined. It was used as a part of the comprehensive cardiac safety assessment, and it was initially evaluated in the safety in vitro screen for cardiotoxicity.
Chain of hERG channel (Q12809 whole entry): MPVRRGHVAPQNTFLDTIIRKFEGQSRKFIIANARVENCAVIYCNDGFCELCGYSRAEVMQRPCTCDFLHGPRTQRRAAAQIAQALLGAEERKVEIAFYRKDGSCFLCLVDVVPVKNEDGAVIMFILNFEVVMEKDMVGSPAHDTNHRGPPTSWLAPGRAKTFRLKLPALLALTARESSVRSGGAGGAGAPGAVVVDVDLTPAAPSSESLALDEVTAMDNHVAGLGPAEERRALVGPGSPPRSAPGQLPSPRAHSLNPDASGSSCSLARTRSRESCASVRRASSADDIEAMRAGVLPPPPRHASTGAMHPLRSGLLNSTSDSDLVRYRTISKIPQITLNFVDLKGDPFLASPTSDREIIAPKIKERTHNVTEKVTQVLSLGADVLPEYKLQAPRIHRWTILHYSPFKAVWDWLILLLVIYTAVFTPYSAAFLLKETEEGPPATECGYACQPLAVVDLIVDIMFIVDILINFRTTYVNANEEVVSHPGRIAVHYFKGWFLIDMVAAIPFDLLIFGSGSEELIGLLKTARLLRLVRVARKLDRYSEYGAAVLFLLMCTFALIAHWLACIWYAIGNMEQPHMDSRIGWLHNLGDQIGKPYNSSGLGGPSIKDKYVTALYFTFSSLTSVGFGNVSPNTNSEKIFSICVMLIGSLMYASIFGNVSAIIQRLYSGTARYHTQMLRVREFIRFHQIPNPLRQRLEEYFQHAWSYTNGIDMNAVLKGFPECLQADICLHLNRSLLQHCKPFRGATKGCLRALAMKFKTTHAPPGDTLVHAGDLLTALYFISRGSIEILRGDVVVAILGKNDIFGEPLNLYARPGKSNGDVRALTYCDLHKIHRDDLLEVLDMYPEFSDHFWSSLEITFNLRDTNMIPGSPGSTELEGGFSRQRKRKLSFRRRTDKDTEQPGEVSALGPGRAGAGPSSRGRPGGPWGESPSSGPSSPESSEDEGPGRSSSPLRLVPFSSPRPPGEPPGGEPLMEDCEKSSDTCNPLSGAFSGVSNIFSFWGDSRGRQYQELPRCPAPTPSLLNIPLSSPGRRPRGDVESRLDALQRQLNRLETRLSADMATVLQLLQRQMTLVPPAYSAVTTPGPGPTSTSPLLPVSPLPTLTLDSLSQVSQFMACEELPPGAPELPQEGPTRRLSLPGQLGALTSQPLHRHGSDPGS
This assay included the following aspects: • The hERG current was recorded on the CHO-K1 cell line stably expressing the hERG channel by utilizing the manual patch-clamp technology; • The inhibition rate at each concentration was calculated according to the hERG tail current; • The measurement was performed at 5 concentrations for each compound to calculate the IC50 value; • 3 cells were tested at each concentration; • One positive control drug was provided.
The hERG current was recorded by utilizing a whole-cell patch-clamp technology. The cell suspension was added to a dish, and the dish was placed on the object stage of an upright microscope. After adhesion of the cells, perfusion was performed with an extracellular fluid at a flow rate of […]. A glass microelectrode was pulled with a microelectrode puller via a two-step process and the pipette rip resistance was between 2-5 MΩ. After the whole-cell record was set up, the clamp potential was held at −80 mV. The cells were depolarized to +60 mV by applying a voltage stimulus and then repolarized to −50 mV to elicit the hERG tail current. All recordation was conducted after the current became stable. The extracellular perfusion administration was started from the lowest concentration, staying for 5-10 min at each concentration until the current was stable, and then conducted with the next concentration.
Background: hERG is a cardiac potassium channel; its block is linked to QT prolongation.

A word on the IC50: it is the midpoint of a concentration-inhibition curve. On to `COc1cc(F)c(F)cc1-c1cc(NC(=O)[C@H]2CCC[C@@H](NC(=O)C3(C#N)CC3)C2)ncc1F` [Compound 67], for which the “TGI(%)” value in test [1] was 67.8%; in test [3] (qd, 5 mg/Kg, 9 days) it was 67.8%. In test [2], this compound returned an IC50 of 67 nM.
For the compound `COc1cc(F)c(F)cc1-c1cc(NC(=O)[C@H]2CCC[C@@H](NC(=O)CO)C2)ncc1F` [Compound 68], the “TGI(%)” value is on record as 90.2% in test [1] and 78.1% in test [3] (qd, 5 mg/Kg, 7 days). Besides, the IC50 in test [2] is 50 nM; in test [4], > 30000 nM.
For `COc1cc(F)ccc1-c1cc(NC(=O)[C@H]2CCC[C@@H](NC(=O)CO)C2)ncc1F` [Compound 45], the “TGI(%)” value in test [1] is given as 58.0%; in test [3] (qd, 5 mg/Kg, 16 days) it was 62.9%. For the same compound, the values for the IC50 in test [2] and in test [4] were 34 nM and > 30000 nM, respectively.
For `COc1cc(F)ccc1-c1cc(NC(=O)[C@H]2CCC[C@@H](NC(C)=O)C2)ncc1F` [Compound 5], the half-inhibitory concentration (IC50) is 37 nM in test [2] and > 30000 nM in test [4]. In addition, the “TGI(%)” value in test [3] (q2d, 20 mg/Kg, 9 days) is given as 98.5%.
Regarding `COc1cc(F)ccc1-c1cc(NC(=O)[C@H]2CCC[C@@H](NC(=O)C3(C#N)CC3)C2)ncc1F` [Compound 33], the results for the concentration for half-maximal inhibition (IC50) in test [2] and in test [4] were 17 nM and > 30000 nM, respectively. In test [3] (qd, 5 mg/Kg, 9 days), the “TGI(%)” value stood at 56.9%.
On to `COc1cc(F)ccc1-c1cc(NC(=O)[C@H]2CCC[C@@H](NS(C)(=O)=O)C2)ncc1F` [Compound 25], for which the results for the concentration for half-maximal inhibition (IC50) in test [2] and in test [4] were 34 nM and > 30000 nM, respectively.
For the compound `COc1cc(F)ccc1-c1ccnc(NC(=O)[C@H]2CCC[C@@H](NC(C)=O)C2)c1`, the “TGI(%)” value in test [3] (q2d, 20 mg/Kg, 9 days) stood at 51.5%.
As to `COC(=O)N[C@@H]1CCC[C@H](C(=O)Nc2cc(-c3ccc(F)cc3OC)c(F)cn2)C1` [Compound 36], the IC50 in test [2] was 44 nM; in test [4] it was > 30000 nM.
The matching figures for `COc1cc(F)ccc1-c1cc(NC(=O)C2CCCC(NC(C)=O)C2)ncc1F` (stereo not drawn) [Compound 3]: 120 nM and > 30000 nM.
